PubChem BioAssay (NCI)
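1) Cells in 96-well plates. 2) Compound, 48 h, 5 concentrations. 3) Linear interpolation between surrounding doses. 4) Unreached endpoint = highest concentration. GI50 marks 50% less growth. Definition used: TGI = concentration required for complete inhibition of growth.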

Columns and labels:
Assay in all cases: growth of human tumour cells (NCI), 48 h
786-0 renal = test system: 786-0 renal
A498 renal = test system: A498 renal
A549 NSCLC = test system: A549 NSCLC
ACHN renal = test system: ACHN renal
BT-549 breast = test system: BT-549 breast
CAKI-1 renal = test system: CAKI-1 renal
CCRF-CEM leukemia = test system: CCRF-CEM leukemia
COLO 205 colon = test system: COLO 205 colon
DU-145 prostate = test system: DU-145 prostate
EKVX NSCLC = test system: EKVX NSCLC
HCC-2998 colon = test system: HCC-2998 colon
HCT-116 colon = test system: HCT-116 colon
HCT-15 colon = test system: HCT-15 colon
HL-60(TB) leukemia = test system: HL-60(TB) leukemia
HOP-62 NSCLC = test system: HOP-62 NSCLC
HOP-92 NSCLC = test system: HOP-92 NSCLC
HS 578T breast = test system: HS 578T breast
HT29 colon = test system: HT29 colon
IGROV1 ovarian = test system: IGROV1 ovarian
K-562 leukemia = test system: K-562 leukemia
KM12 colon = test system: KM12 colon
LOX IMVI melanoma = test system: LOX IMVI melanoma
M14 melanoma = test system: M14 melanoma
MALME-3M melanoma = test system: MALME-3M melanoma
MCF7 breast = test system: MCF7 breast
MDA-MB-231 breast = test system: MDA-MB-231 breast
MDA-MB-435 = test system: MDA-MB-435
MOLT-4 leukemia = test system: MOLT-4 leukemia
NCI-H226 lung = test system: NCI-H226 lung
NCI-H23 lung = test system: NCI-H23 lung
NCI-H460 lung = test system: NCI-H460 lung
NCI-H522 lung = test system: NCI-H522 lung
NCI/ADR-RES ovarian = test system: NCI/ADR-RES ovarian
OVCAR-3 ovarian = test system: OVCAR-3 ovarian
OVCAR-4 ovarian = test system: OVCAR-4 ovarian
OVCAR-5 ovarian = test system: OVCAR-5 ovarian
OVCAR-8 ovarian = test system: OVCAR-8 ovarian
PC-3 prostate = test system: PC-3 prostate
RPMI-8226 leukemia = test system: RPMI-8226 leukemia
RXF 393 renal = test system: RXF 393 renal
SF-268 CNS = test system: SF-268 CNS
SF-295 CNS = test system: SF-295 CNS
SF-539 CNS = test system: SF-539 CNS
SK-MEL-2 melanoma = test system: SK-MEL-2 melanoma
SK-MEL-28 melanoma = test system: SK-MEL-28 melanoma
SK-MEL-5 melanoma = test system: SK-MEL-5 melanoma
SK-OV-3 ovarian = test system: SK-OV-3 ovarian
SN12C renal = test system: SN12C renal
SNB-19 CNS = test system: SNB-19 CNS
SNB-75 CNS = test system: SNB-75 CNS
SR leukemia = test system: SR leukemia
SW-620 colon = test system: SW-620 colon
T-47D breast = test system: T-47D breast
TK-10 renal = test system: TK-10 renal
U251 CNS = test system: U251 CNS
UACC-257 melanoma = test system: UACC-257 melanoma
UACC-62 melanoma = test system: UACC-62 melanoma
UO-31 renal = test system: UO-31 renal

Work on O=C(Nc1cccc(-n2ccc3c(NC(=O)c4ccccc4)nccc32)c1)Nc1ccc(Cl)c(C(F)(F)F)c1 yielded a GI50 (786-0 renal) of 589 nM, a TGI (786-0 renal) greater than 100000 nM and a GI50 (A498 renal) of 210 nM. For the same compound, the TGI (A498 renal) was 1350 nM, the GI50 (A549 NSCLC) was 485 nM and the TGI (A549 NSCLC) was greater than 100000 nM. It also gave a GI50 (ACHN renal) of 670 nM, a TGI (ACHN renal) of 8480 nM and a GI50 (BT-549 breast) of 697 nM. For the same compound, the TGI (BT-549 breast) was 10400 nM, the GI50 (CAKI-1 renal) was 718 nM and the TGI (CAKI-1 renal) was 9380 nM. It also gave a GI50 (CCRF-CEM leukemia) of 332 nM, a TGI (CCRF-CEM leukemia) greater than 100000 nM and a GI50 (COLO 205 colon) of 273 nM. For the same compound, the TGI (COLO 205 colon) was 737 nM, the GI50 (DU-145 prostate) was 338 nM and the TGI (DU-145 prostate) was 2280 nM. For the same compound, the GI50 (EKVX NSCLC) was 633 nM, the TGI (EKVX NSCLC) was greater than 100000 nM and the GI50 (HCC-2998 colon) was 413 nM. For the same compound, the TGI (HCC-2998 colon) was 15200 nM, the GI50 (HCT-116 colon) was 372 nM and the TGI (HCT-116 colon) was 13700 nM. It also gave a GI50 (HCT-15 colon) of 339 nM, a TGI (HCT-15 colon) of 14500 nM and a GI50 (HL-60(TB) leukemia) of 332 nM. It also gave a GI50 (HOP-62 NSCLC) of 736 nM, a TGI (HOP-62 NSCLC) greater than 44600 nM and a GI50 (HOP-92 NSCLC) of 860 nM. For the same compound, the TGI (HOP-92 NSCLC) was 5740 nM, the GI50 (HS 578T breast) was 283 nM and the TGI (HS 578T breast) was 3250 nM. The GI50 (HT29 colon) was 327 nM, the TGI (HT29 colon) was 1400 nM and the GI50 (IGROV1 ovarian) was 662 nM. For the same compound, the TGI (IGROV1 ovarian) was greater than 100000 nM, the GI50 (K-562 leukemia) was 386 nM and the TGI (K-562 leukemia) was greater than 100000 nM. It also gave a GI50 (KM12 colon) of 343 nM, a TGI (KM12 colon) of 2680 nM and a GI50 (LOX IMVI melanoma) of 649 nM. For the same compound, the TGI (LOX IMVI melanoma) was 31600 nM, the GI50 (M14 melanoma) was 315 nM and the TGI (M14 melanoma) was 1260 nM. For the same compound, the GI50 (MALME-3M melanoma) was 1070 nM, the TGI (MALME-3M melanoma) was 47500 nM and the GI50 (MCF7 breast) was 373 nM. For the same compound, the TGI (MCF7 breast) was greater than 30700 nM, the GI50 (MDA-MB-231 breast) was 420 nM and the TGI (MDA-MB-231 breast) was 14200 nM. For the same compound, the GI50 (MDA-MB-435) was 227 nM, the TGI (MDA-MB-435) was 605 nM and the GI50 (MOLT-4 leukemia) was 885 nM. The TGI (MOLT-4 leukemia) was greater than 100000 nM, the GI50 (NCI-H226 lung) was 865 nM and the TGI (NCI-H226 lung) was greater than 28500 nM. It also gave a GI50 (NCI-H23 lung) of 593 nM, a TGI (NCI-H23 lung) of 5210 nM and a GI50 (NCI-H460 lung) of 337 nM. The TGI (NCI-H460 lung) was 18300 nM, the GI50 (NCI-H522 lung) was 211 nM and the TGI (NCI-H522 lung) was 642 nM. It also gave a GI50 (NCI/ADR-RES ovarian) of 252 nM, a TGI (NCI/ADR-RES ovarian) of 667 nM and a GI50 (OVCAR-3 ovarian) of 240 nM. The TGI (OVCAR-3 ovarian) was 554 nM, the GI50 (OVCAR-4 ovarian) was 971 nM and the TGI (OVCAR-4 ovarian) was greater than 100000 nM. The GI50 (OVCAR-5 ovarian) was 482 nM, the TGI (OVCAR-5 ovarian) was greater than 100000 nM and the GI50 (OVCAR-8 ovarian) was 431 nM. For the same compound, the TGI (OVCAR-8 ovarian) was greater than 39600 nM, the GI50 (PC-3 prostate) was 432 nM and the TGI (PC-3 prostate) was greater than 36100 nM. The GI50 (RPMI-8226 leukemia) was 424 nM, the TGI (RPMI-8226 leukemia) was 7020 nM and the GI50 (RXF 393 renal) was 224 nM. For the same compound, the TGI (RXF 393 renal) was 693 nM, the GI50 (SF-268 CNS) was 696 nM and the TGI (SF-268 CNS) was greater than 40000 nM. The GI50 (SF-295 CNS) was 294 nM, the TGI (SF-295 CNS) was 1340 nM and the GI50 (SF-539 CNS) was 308 nM. It also gave a TGI (SF-539 CNS) of 3980 nM, a GI50 (SK-MEL-2 melanoma) of 358 nM and a TGI (SK-MEL-2 melanoma) of 2620 nM. For the same compound, the GI50 (SK-MEL-28 melanoma) was 651 nM, the TGI (SK-MEL-28 melanoma) was greater than 92000 nM and the GI50 (SK-MEL-5 melanoma) was 317 nM. For the same compound, the TGI (SK-MEL-5 melanoma) was 1480 nM, the GI50 (SK-OV-3 ovarian) was 346 nM and the TGI (SK-OV-3 ovarian) was 20600 nM. It also gave a GI50 (SN12C renal) of 820 nM, a TGI (SN12C renal) greater than 100000 nM and a GI50 (SNB-19 CNS) of 494 nM. It also gave a TGI (SNB-19 CNS) greater than 100000 nM, a GI50 (SNB-75 CNS) of 240 nM and a TGI (SNB-75 CNS) of 769 nM. It also gave a GI50 (SR leukemia) of 367 nM, a TGI (SR leukemia) greater than 23300 nM and a GI50 (SW-620 colon) of 395 nM. It also gave a TGI (SW-620 colon) greater than 100000 nM, a GI50 (T-47D breast) of 2880 nM and a TGI (T-47D breast) greater than 100000 nM. The GI50 (TK-10 renal) was 1190 nM, the TGI (TK-10 renal) was 14600 nM and the GI50 (U251 CNS) was 495 nM. It also gave a TGI (U251 CNS) of 17700 nM, a GI50 (UACC-257 melanoma) of 1870 nM and a TGI (UACC-257 melanoma) of 20900 nM. The GI50 (UACC-62 melanoma) was 490 nM, the TGI (UACC-62 melanoma) was 20000 nM and the GI50 (UO-31 renal) was 1350 nM. The TGI (UO-31 renal) was greater than 100000 nM.
